“And” between values parts separate entries of the source, which are not always exact repeats. Identical values can stand only once. Like-named read-outs stand apart in the source and are kept apart here. Ends that are not written are not given here. Peptide text beside a SMILES is read from it.
Experiments:
A. baumannii biofilm = assay: checkerboard titration biofilm synergy (FIC); format: cell-based; settings: for Fold decrease in antibiotic MIC in the presence of peptide: peptide DJK5
Protocol: (§1) Peptides and various conventional antibiotics were analyzed by checkerboard titration into microtiter trays using CLSI methods (Wiegand, I., K. Hilpert, and R. E. W. Hancock. 2008. Nature Protocols 3:163-175), bacteria added and, after overnight incubation at 37° C., the residual biofilm assessed by the crystal violet method mentioned in the body of the grant, with an A595 of 0.2 considered as 100% biofilm inhibition. The effects of the peptide in reducing the minimal biofilm inhibitory concentration (MBIC) of the antibiotic and vice versa were assessed using the Fractional Inhibitory Concentration (FIC) method whereby ΣFTC=FICA+FICB=(CA/MICA)+(CB/MICB), where MBICA and MBICB are the MBICs of peptide A and antibiotic B alone, respectively, and CA and CB (expressed in μg/ml) are the MICs of the drugs in combination. This conventional clinical microbiology assay is interpreted as follows

Salmonella biofilm = assay: checkerboard titration biofilm synergy (FIC); format: cell-based; settings: for Fold decrease in antibiotic MIC in the presence of peptide: peptide DJK5
Protocol: as §1

K. pneumoniae biofilm = assay: checkerboard titration biofilm synergy (FIC); format: cell-based; settings: for Fold decrease in antibiotic MIC in the presence of peptide: peptide DJK5
Protocol: as §1

P. aeruginosa biofilms = settings: P. aeruginosa biofilm
Protocol: as §1

S. aureus biofilms = assay: checkerboard titration biofilm synergy (MBIC, FIC); format: cell-based; settings: for MBIC: compound alone; for Fold decrease in antibiotic concentration / antibiotic MIC: in the presence of peptide DJK5
Protocol: as §1

E. coli biofilms = assay: checkerboard titration biofilm synergy (MBIC, FIC); format: cell-based; settings: for MBIC: compound alone; for Fold decrease in antibiotic concentration: in the presence of peptide 1018; for Fold decrease in antibiotic concentration / antibiotic MIC: in the presence of peptide DJK5
Protocol: as §1

[1] = test system: methicillin resistant S. aureus (Sa) biofilm; format: cell-based, Staphylococcus aureus; settings: peptide 5 μg/ml
[2] = test system: Pseudomonas aeruginosa (Pa) biofilm; assay: static abiotic solid surface (microtiter, crystal violet) / Bioflux biofilm inhibition screen; format: cell-based
Protocol: FIG. 1. Identification of new anti-biofilm peptides active against P. aeruginosa using the microtiter plate screening method with crystal violet staining. […] As a control peptide 1037 was utilized [de la Fuente Nunez et al. 2011].
Methods of assessment of anti-biofilm activity—Biofilm formation was initially analyzed using a static abiotic solid surface assay as described elsewhere (de la Fuente-Nunez et al., 2012). Dilutions (1/100) of overnight cultures were incubated in BM2 biofilm-adjusted medium [62 mM potassium phosphate buffer (pH 7), 7 mM (NH4)2SO4, 2 mM MgSO4, 10 μM FeSO4, 0.4% (wt/vol) glucose, 0.5% (wt/vol) Casamino Acids], or a nutrient medium such as Luria Broth, in polypropylene microtiter plates (Falcon, United States) in the absence (control) or presence of peptide. Peptide was added at time zero (prior to adding the diluted, overnight cultures) in varying concentrations, and the decrease in biofilm formation was recorded at 22-46 h for most bacteria. Planktonic cells were removed, biofilm cells adhering to the side of the tubes were stained with crystal violet, and absorbance at 595 nm was measured using a microtiter plate reader (Bio-Tek Instruments Inc., United States). Some peptides were screened against two Gram negative organisms, P. aeruginosa and K. pneumoniae using a Bioflux apparatus (AutoMate Scientific, Berkeley, Calif.; http://www.autom8.com/bioflux_biofilm.html), which allows for the high-throughput, real-time analysis of biofilms.

[3] = test system: human peripheral blood mononuclear cells (MCP-1); assay: MCP-1 chemokine production by ELISA; format: cell-based
Protocol: FIG. 19. High production of anti-infective chemokine MCP-1 by human peripheral blood mononuclear cells treated with peptides, as determined by ELISA after 24 hours of stimulation.
Venous blood (20 ml) from healthy volunteers was collected in Vacutainer® collection tubes containing sodium heparin as an anticoagulant (Becton Dickinson, Mississauga, ON) in accordance with UBC ethical approval and guidelines. Blood was diluted 1:1 with complete RPMI 1640 medium and separated by centrifugation over a Ficoll-Paque® Plus (Amersham Biosciences, Piscataway, N.J., USA) density gradient. White blood cells were isolated from the buffy coat, washed twice in RPMI 1640 complete medium, and the number of peripheral blood mononuclear cells (PBMC) was determined by Trypan blue exclusion. PBMC (5×10^5) were seeded into 12-well tissue culture dishes (Falcon; Becton Dickinson) at 0.75 to 1×10^6 cells/ml at 37° C. in 5% CO2. The above conditions were chosen to mimic conditions for circulating blood monocytes entering tissues at the site of infection via extravasation.
Following incubation of the cells under various treatment regimens, the tissue culture supernatants were centrifuged at 1000×g for 5 min, then at 10,000×g for 2 min to obtain cell-free samples. Supernatants were aliquoted and then stored at −20° C. prior to assay for various chemokines by capture ELISA (eBioscience and BioSource International Inc., CA, USA respectively)

[4] = antibiotic in combination with peptide 1018
[5] = antibiotic in combination with peptide DJK5
[6] = in combination with peptide 1018
[7] = in combination with peptide DJK5
[8] = in the presence of peptide 1018

C[C@@H](O)[C@H]1C(=O)N2C(C(=O)O)=C(SCCN=CN)C[C@H]12 [Imipenem]
FIC (A. baumannii biofilm; [4]): 0.53 | FIC (A. baumannii biofilm; [5]): 0.75 | Fold decrease in antibiotic MIC in the presence of peptide (A. baumannii biofilm): 2X | FIC (Salmonella biofilm; [4]): 1 | FIC (Salmonella biofilm; [5]): 1 | Fold decrease in antibiotic MIC in the presence of peptide (Salmonella biofilm): 2X | FIC (K. pneumoniae biofilm; [4]): 0.53 | FIC (K. pneumoniae biofilm; [5]): 1 | Fold decrease in antibiotic MIC in the presence of peptide (K. pneumoniae biofilm): 64X | FIC (P. aeruginosa biofilms; [4]): 0.502 and 0.5 | FIC (P. aeruginosa biofilms; [5]): 0.51 and 0.5 | Concentration of antibiotic at the FIC (P. aeruginosa biofilms; [6]): 0.8 µg/mL | Concentration of antibiotic at the FIC (P. aeruginosa biofilms; [7]): 0.8 µg/mL | FIC (S. aureus biofilms; [4]): 0.25 | FIC (S. aureus biofilms; [5]): 0.52 | MBIC (S. aureus biofilms): >102.4 µg/mL | concentration of antibiotic at FIC (S. aureus biofilms; [6]): 25.6 µg/mL | concentration of antibiotic at FIC (S. aureus biofilms; [7]): 3.2 µg/mL | Fold decrease in antibiotic concentration (S. aureus biofilms; [8]): 4X | Fold decrease in antibiotic concentration / antibiotic MIC (S. aureus biofilms): 32X | FIC (E. coli biofilms; [4]): 0.75 | FIC (E. coli biofilms; [5]): 1 | MBIC (E. coli biofilms): 6.4 µg/mL | concentration of antibiotic at FIC (E. coli biofilms; [6]): 1.6 µg/mL | concentration of antibiotic at FIC (E. coli biofilms; [7]): 0.1 µg/mL | Fold decrease in antibiotic concentration (E. coli biofilms): 4X | Fold decrease in antibiotic concentration / antibiotic MIC (E. coli biofilms): 64X

CC[C@H](C)[C@H](N)C(=O)N[C@@H](CC(C)C)C(=O)N[C@@H](CCCCN)C(=O)N[C@@H](CCCCN)C(=O)N[C@@H](Cc1c[nH]c2ccccc12)C(=O)N1CCC[C@H]1C(=O)N[C@@H](Cc1c[nH]c2ccccc12)C(=O)N[C@@H](Cc1c[nH]c2ccccc12)C(=O)N1CCC[C@H]1C(=O)N[C@@H](Cc1c[nH]c2ccccc12)C(=O)N[C@@H](CCCNC(=N)N)C(=O)N[C@@H](CCCNC(=N)N)C(=O)N[C@@H](CCCCN)C(N)=O [Peptide 11CN] (H-ILKKWPWWPWRRK-NH2; N-terminus assumed)
% Biofilm Inhibition Sa [1]: 32%

CC[C@H](C)[C@H](NC(=O)[C@H](CCCNC(=N)N)NC(=O)[C@H](C)NC(=O)[C@@H](NC(=O)[C@H](CC(C)C)NC(=O)[C@H](CCCNC(=N)N)NC(=O)[C@H](CCCNC(=N)N)NC(=O)[C@@H](NC(=O)[C@@H](NC(=O)[C@H](CCCNC(=N)N)NC(=O)[C@@H](N)CCCCN)[C@@H](C)CC)C(C)C)C(C)C)C(=O)N[C@H](C(N)=O)C(C)C [Peptide 1017] (H-KRIVRRLVARIV-NH2; N-terminus assumed)
% Biofilm Inhibition Sa [1]: 21% | % Biofilm Inhibition Pa ([2]; peptide 10 μg/ml): 26%

NC[C@H]1O[C@H](O[C@H]2[C@H](O)[C@@H](O[C@H]3O[C@H](CO)[C@@H](O)[C@H](N)[C@H]3O)[C@H](N)C[C@@H]2N)[C@H](N)C[C@@H]1O [Tobramycin]
FIC (A. baumannii biofilm; [4]): 0.38 | FIC (A. baumannii biofilm; [5]): 0.56 | Fold decrease in antibiotic MIC in the presence of peptide (A. baumannii biofilm): 16X | FIC (Salmonella biofilm; [4]): 0.75 | FIC (Salmonella biofilm; [5]): 1.03 | Fold decrease in antibiotic MIC in the presence of peptide (Salmonella biofilm): 32X | FIC (K. pneumoniae biofilm; [4]): 0.31 | FIC (K. pneumoniae biofilm; [5]): 0.75 | Fold decrease in antibiotic MIC in the presence of peptide (K. pneumoniae biofilm): 4X | FIC (P. aeruginosa biofilms; [4]): 0.502 and 0.5 | FIC (P. aeruginosa biofilms; [5]): 0.51 and 0.5 | Concentration of antibiotic at the FIC (P. aeruginosa biofilms; [6]): 1.6 µg/mL | Concentration of antibiotic at the FIC (P. aeruginosa biofilms; [7]): 1.6 µg/mL | FIC (S. aureus biofilms; [4]): 0.52 and 0.5 | FIC (S. aureus biofilms; [5]): 1 | MBIC (S. aureus biofilms): >102.4 µg/mL | concentration of antibiotic at FIC (S. aureus biofilms; [6]): 1.6 µg/mL | concentration of antibiotic at FIC (S. aureus biofilms; [7]): 1.6 µg/mL | Fold decrease in antibiotic concentration (S. aureus biofilms; [8]): 64X | Fold decrease in antibiotic concentration / antibiotic MIC (S. aureus biofilms): 64X | FIC (E. coli biofilms; [4]): 0.375 and 0.38 | FIC (E. coli biofilms; [5]): 0.5625 and 0.56 | MBIC (E. coli biofilms): 6.4 µg/mL | concentration of antibiotic at FIC (E. coli biofilms; [6]): 1.6 µg/mL | concentration of antibiotic at FIC (E. coli biofilms; [7]): 0.4 µg/mL | Fold decrease in antibiotic concentration (E. coli biofilms): 4X | Fold decrease in antibiotic concentration / antibiotic MIC (E. coli biofilms): 16X

CC(C)(O/N=C(\C(=O)N[C@@H]1C(=O)N2C(C(=O)[O-])=C(C[n+]3ccccc3)CS[C@H]12)c1csc(N)n1)C(=O)O [Ceftazidime]
FIC (A. baumannii biofilm; [4]): 0.37 | FIC (A. baumannii biofilm; [5]): 0.75 | Fold decrease in antibiotic MIC in the presence of peptide (A. baumannii biofilm): 2X | FIC (Salmonella biofilm; [4]): 0.31 | FIC (Salmonella biofilm; [5]): 0.75 | Fold decrease in antibiotic MIC in the presence of peptide (Salmonella biofilm): 4X | FIC (K. pneumoniae biofilm; [4]): 0.75 | FIC (K. pneumoniae biofilm; [5]): 0.89 | Fold decrease in antibiotic MIC in the presence of peptide (K. pneumoniae biofilm): 16X | FIC (P. aeruginosa biofilms; [4]): 0.38 | FIC (P. aeruginosa biofilms; [5]): 0.51 and 0.5 | Concentration of antibiotic at the FIC (P. aeruginosa biofilms; [6]): 1.4 µg/mL | Concentration of antibiotic at the FIC (P. aeruginosa biofilms; [7]): 0.8 µg/mL | FIC (S. aureus biofilms; [4]): 0.16 | FIC (S. aureus biofilms; [5]): 0.375 and 0.38 | FIC (S. aureus biofilms; antibiotic in combination with peptide DJK6): 0.4 | MBIC (S. aureus biofilms): 256 µg/mL | concentration of antibiotic at FIC (S. aureus biofilms; [6]): 8-8 μg/ml | concentration of antibiotic at FIC (S. aureus biofilms; [7]): 32 µg/mL | Fold decrease in antibiotic concentration (S. aureus biofilms; [8]): 32X | Fold decrease in antibiotic concentration / antibiotic MIC (S. aureus biofilms): 8X | Fold decrease in antibiotic concentration (S. aureus biofilms; in the presence of peptide DJK6): 8 | FIC (E. coli biofilms; [4]): 1 | FIC (E. coli biofilms; [5]): 0.542 and 0.54 | MBIC (E. coli biofilms): 0.4 µg/mL | concentration of antibiotic at FIC (E. coli biofilms; [6]): 0.1 µg/mL | concentration of antibiotic at FIC (E. coli biofilms; [7]): 0.2 µg/mL | Fold decrease in antibiotic concentration (E. coli biofilms): 4X | Fold decrease in antibiotic concentration / antibiotic MIC (E. coli biofilms): 2X

CC[C@H](C)[C@H](NC(=O)[C@H](Cc1c[nH]c2ccccc12)NC(=O)[C@H](CCCNC(=N)N)NC(=O)[C@@H](N)CCCNC(=N)N)C(=O)N[C@@H](CCCNC(=N)N)C(=O)N[C@H](C(=O)N[C@@H](C)C(=O)N[C@H](C(=O)N[C@H](C(=O)N[C@@H](CC(C)C)C(=O)N[C@@H](CCCNC(=N)N)C(=O)N[C@H](C(N)=O)C(C)C)[C@@H](C)CC)C(C)C)C(C)C [HE1]
MCP-1 induction ([3]; 24 hours of stimulation, lowest peptide concentration 20 μg/ml): clearly superior to peptide 1018

VRFRIWRR (VRFRIWRR-NH2) [EH2]
Notes (IDR immunomodulatory activity) [3]: Weaker activity than 1018

CC[C@H](C)[C@H](N)C(=O)N[C@@H](CC(C)C)C(=O)N1CCC[C@H]1C(=O)N[C@@H](Cc1c[nH]c2ccccc12)C(=O)N[C@@H](CCCCN)C(=O)N[C@@H](Cc1c[nH]c2ccccc12)C(=O)N1CCC[C@H]1C(=O)N[C@@H](Cc1c[nH]c2ccccc12)C(=O)N[C@@H](Cc1c[nH]c2ccccc12)C(=O)N1CCC[C@H]1C(=O)N[C@@H](Cc1c[nH]c2ccccc12)C(=O)N[C@@H](CCCNC(=N)N)C(=O)N[C@@H](CCCNC(=N)N)C(N)=O [Indolicidin, reference compound]
% Biofilm Inhibition Sa [1]: 48% | % Biofilm Inhibition Pa ([2]; Pa) biofilm, 10 μg/ml): 29%
